Source: patent publication US11932655B1, “12-bromo-2,16-dioxapentacyclo[7.7.5.01,21.03,8.010,15]henicosa3(8),10,12,14-tetraene-7,20-dione as an antimicrobial compound” (KING FAISAL UNIVERSITY, priority 2023, dated 2024)

How the values were obtained:
Test in all cases: Antimicrobial activity, agar dilution, exposure-time test
Type in all cases: cell-based
Details in all cases: after 10, 20, 40 and 60 minutes at all dilutions 1:100 to 1:800
[1] = test system: Staphylococcus aureus
Description: (§1) The antibacterial properties of the synthesized compound of 12-bromo-2,16-dioxapentacyclo[7.7.5.0^1,21.0^3,8.0^10,15]henicosa3(8),10,12,14-tetraene-7,20-dione were studied by the method of agar dilution. Test solutions of each compound was prepared in concentration of 1% using dimethylformamide as a solvent. Then they were diluted in physiological solution to obtain the final experimental dilutions of 1:100, 1:200, 1:400, and 1:800. The effect of these substances were compared with furacillin in a controllable study. The testing microbes used were gram positive bacteria Staphylococcus aureus, gram negative bacteria Pseudomonas aeruginosa, Escherichia coli, and Candida albicans fungus. The experiments used for this survey were meat-pentonlu agar (EPA) for cultivation of bacteria and Saburo environment for fungi. Each experiment used 1 mL of test solution on each plate for 500 minutes. Two drops of emulsified with microbes feel were added. All experimental samples were taken from the agar after 10, 20, 40, 60 minutes in the environment on the basis of Patrk planted. Bacteria were cultivated at a temperature of 37° C. for 1 day and the mushroom was kept in a thermostat for […] at a temperature of 28° C. Then results were checked. Those of the control and the antimicrobial activity for the synthesized compounds are listed in Table 1 below, with furacillin serving as a reference.

[2] = test system: Pseudomonas aeruginosa
Description: as §1

[3] = test system: Candida albicans
Description: as §1

[4] = test system: Escherichia coli
Description: as §1

Measured: inhibition activity compared with Furacilin

O=C1CCCC2=C1C1c3cc(Br)ccc3OC3(CCCC(=O)C13)O2 (stereo not shown) [12-bromo-2,16-dioxapentacyclo[7.7.5.0^1,21.0^3,8.0^10,15]henicosa3(8),10,12,14-tetraene-7,20-dione]
higher inhibition activity: all assays above
